Test results as given in patent US7115574B2, “System and method for support legacy operating system booting in a legacy-free system” (priority 2001, dated 2006).

Key:
[1] = test system: N9 clone of murine microglial cells; experiment: Northern blot of TNF-α and iNOS mRNA in activated microglia; assay type: cell-based; settings: peptide prior to LPS and IFN-γ
Protocol: Total cellular RNA was extracted from 10^6 adherent microglial cells plated in six-well tissue culture plates (Corning). Electrophoresis of RNA samples (10 μg/lane) was performed in 1% agarose/2.2 M formaldehyde gels and the gels subsequently blotted onto nylon filters by capillary action and baked for 2 h before prehybridization. The cDNA fragments encoding murine TNF-α and mouse macrophage iNOS were ^32P-labeled using the Ready-To-Go DNA Labeling Kit (Pharmacia, Uppsala, Sweden) before hybridization of nylon filters and autoradiography. Blots were subsequently rehybridized with human glyceraldehyde-3-phosphate dehydrogenase (G-3-PDH) cDNA probe as an internal control (Clontech Laboratories, Inc., Palo Alto, Calif.).

[2] = test system: N9 clone of murine microglial cells; experiment: TNF-α, IL-6 and NO2− production by LPS+IFN-γ activated microglia; assay type: cell-based
Protocol: See Delgado, R., Carlin, A., Alraghi, L., Demitri, M., Meda, L., Galimberti, D., Pierluigi, B., Lipton, J. M., Catania, A., Melanocortin Peptides Inhibit Production of Proinflammatory Cytokines and Nitric Oxide by Activated Microglia, 63 J. of Leukocyte Biol. 740 (1998). […] The N9 clone of murine microglial cells was obtained by immortalization of embryonic brain cultures with the 3RV retrovirus carrying an activated v-myconcogene. N9 cells were cultured in T-75-cm^2 culture flasks (Coming, Cambridge, Mass.) and maintained at 37° C. in a humidified incubator under 5% CO2 atmosphere in RPMI 1640 supplemented with 2 mM L-glutamine, 50 U/mL penicillin G, 50 μg/mL streptomycin sulfate (GIBCO-BBL, Paisley, UK), and 10% heat-inactivated fetal bovine serum (FBS, Hyclone Lab, Inc., Logan, Utah) until experiments were performed. Cells were used between the first and the tenth passage.
Sub-confluent microglial cells were washed twice with phosphate-buffered saline (PBS) and incubated with trypsin 0.025% and ethylenediaminetetraacetate (EDTA) 0.02% without calcium and magnesium for 3 min. at 37° C. to detach the cells from the culture flask. Cells were then resuspended in medium and incubated in 24-well tissue-culture plates at a concentration of 2×10^5 cells/mL for 16 h in a humidified incubator (37° C., 5% CO2). Growth medium was removed and cell monolayers were stimulated with 10 ng/mL lipopolysaccharide (LPS, from Escherichia coli 055:B5, Sigma Chemical Co., St. Louis, Mo.) plus 1 U/ml, murine IFN-γ (Sigma). […] Although production of TNF-α and NO was reduced to even much lower concentrations of the peptides, concentrations in the micromolar range had the most profound and consistent inhibitory effects. […] Cell-free supernatants were harvested after 24 h incubation and assayed for TNF-α, IL-6 and NO2. Viability of cells was assessed by trypan blue exclusion for each experimental condition: it was consistently >98%. Dexamethasone (Sigma) and N-monomethyl-L-arginine (L-NMMA: 100 μM, Cayman Chemical, Ann Arbor, Mich.) were used as positive controls for TNF-α and NO inhibition, respectively. Tests were repeated in at least three independent experiments and assays were performed in triplicate.
TNF-α bioactivity was measured in supernatants of cell cultures by standard cytotoxicity assay using L929 cells and recombinant human TNF-α (Sigma) as standard. The detection limit of the bioassay was 20 pg/mL. IL-6 was measured using a commercial murine enzyme-linked immunosorbent assay (ELISA: RPN 2714, Amersham, Little Chalfont, UK).
NO is rapidly oxidized to nitrite in culture medium, and nitrite (NO2^−) concentration is an indicator of NO production. Cell-free culture supernatants were mixed with equal amounts of Griess reagent (1% sulfanilamide, 0.1% naphtylethylenediamide in 2.5% phosphoric acid) in wells of 96-well ELISA plates. Samples were incubated at room temperature for 10 min and absorbance was measured at 540 nm with the use of a microplate reader. Nitrite […] concentrations were calculated using a sodium nitrite standard curve.
Effects of melanocortin peptides on cytokine and NO production were evaluated by repeated measures analysis of variance followed by Dunnet's test for specific comparisons. Probability values less than 0.05 were considered significant.

C. albicans [3] = experiment: C. albicans colony forming units (candidacidal activity); assay type: cell-based; settings: FIG. 2
Protocol: C. albicans (clinical isolate) was obtained from the collection of the Department of Microbiology, Ospedale Maggiore di Milano and maintained on Sabouraud's agar slants and periodically transferred to Sabouraud's agar plates and incubated for 48 hours at 28° C. To prepare a stationary growth phase yeast, a colony was taken from the agar plate and transferred into 30 ml Sabouraud-dextrose broth and incubated for 72 hours at 32° C. Cells were centrifuged and suspended in Hank's balanced salt solution (“HBSS”) to the desired concentration. Viability, determined by the exclusion of 0.01% methylene blue, remained >98%.
C. albicans (1×10^6/ml in HBSS) was incubated in the presence or absence or α-MSH(1-13) (SEQ ID NO: 3) or (11-13) (SEQ ID NO: 1) at concentrations in the range of 10^−15 M to 10^−6 M for 2 hours at 37° C. Cells were then washed in cold distilled water and diluted with HBSS to a concentration of 100 organisms/ml. One-ml aliquots were dispensed on blood agar plates and incubated for 48 hours at 37° C. Organism viability was estimated from the number of colonies formed.
In subsequent experiments using familiar procedures we compared activity of α-MSH(4-10) (SEQ ID NO: 10), (6-13) (SEQ ID NO: 2), (11-13) (SEQ ID NO: 1), ACTH(1-39) (SEQ ID NO: 9), (18-39) (SEQ ID NO: 11) and fluconazole, the latter an established antifungal agent. Melanocortin peptides and fluconazole were tested in concentrations of 10^−6 M to 10^−4 M. There were at least six replicates for each concentration of peptide. […]

C. albicans [4] = experiment: Horse serum-induced germ tube formation (germination) of C. albicans; assay type: cell-based; settings: 10^−6M, 60 minutes at 37° C. after horse serum induction
Protocol: C. albicans from stationary phase cultures were washed twice with distilled water and suspended in HBSS to a final concentration of 2×10^6/ml. Hyphal growth was induced by addition of 10% inactivated horse serum (GIBCO/BRL, Great Britain) to yeast incubated for 45 minutes at 37° C. with continuous shaking. Horse serum was removed by washing cells twice with HBSS and incubation was continued for 60 minutes at 37° C. in the presence of α-MSH(1-13) (SEQ ID NO: 3), (6-13) (SEQ ID NO: 2) or (11-13) (SEQ ID NO: 1) at a concentration of 10^−6M with continuous shaking. The percentage of filamentous cells was evaluated under a light microscope with the aid of hemocytometer. Experiments were run in triplicate and at least 200 cells were scored. Photomicrographs were taken with a MC100 camera attached to an Axioskop Zeiss microscope.

[5] = Lipton and Catania, Immunol. Today 1997; cited from earlier work
[6] = microglia stimulated with LPS+IFN-γ for 24 hr, micromolar concentrations

## ACTH(1-24): melanocortin peptide ACTH(1-24) (Sigma) (SYSMEHFRWGKPVGKKRRPVKVYP; Designed polypeptide with anti-inflammatory, anti-microbial, anti-fungal, and anti-viral properties.) [reference compound]
[1]
  transcription levels (mRNA) for TNF-α and iNOS: inhibition of mRNA transcription
[2]; LPS+IFN-γ stimulated microglia, 1-100 μM tested
  concentration most effective at inhibiting cytokine formation: 10 to 25 µM
[2]; [6]
  reduction of production of IL-6: 65%
  reduction of production of NO2^−: 41%
  reduction of production of TNF-α: 38%

## HFRWGKPV (Ac-HFRWGKPV-NH2) [α-MSH(6-13), octapeptide fragment of α-MSH]
C. albicans [3]; 10^−4M melanocortin peptides
  relative potency in reducing C. albicans viability: most effective
C. albicans [4]
  reduction in the number of filamentous cells / inhibition of germ tube formation: approximately 50%

## α-MSH(4-10): core α-MSH sequence (4-10) [reference compound]
C. albicans [3]; 10^−4M peptide as printed
  inhibition of CFU: approximately 50%
[5]
  toxicity: very low toxicity
